From patent publication US11603359B2, “Benzothiadiazepine compounds and their use as bile acid modulators” (Albireo AB, priority 2019, dated 2023)
pIC50: −log10 of the molar value. Each block holds one compound with its values, some of them ahead of it.

Experiments:
human LBAT = biological target: T1, human LBAT (Homo sapiens, UniProt Q14973); test: LBAT (h/m) assay, human LBAT-overexpressing cells, 3H-taurocholic acid uptake; format: cell-based; details: 0.3 μM 3H-taurocholic acid + 7.5 μM cold taurocholic acid, 20 minutes, read-out: hLBAT IC50
T1 construct: expressed in transfected cells; Geneticin-selected LBAT-overexpressing cells
T1 sequence (Q14973 1-349): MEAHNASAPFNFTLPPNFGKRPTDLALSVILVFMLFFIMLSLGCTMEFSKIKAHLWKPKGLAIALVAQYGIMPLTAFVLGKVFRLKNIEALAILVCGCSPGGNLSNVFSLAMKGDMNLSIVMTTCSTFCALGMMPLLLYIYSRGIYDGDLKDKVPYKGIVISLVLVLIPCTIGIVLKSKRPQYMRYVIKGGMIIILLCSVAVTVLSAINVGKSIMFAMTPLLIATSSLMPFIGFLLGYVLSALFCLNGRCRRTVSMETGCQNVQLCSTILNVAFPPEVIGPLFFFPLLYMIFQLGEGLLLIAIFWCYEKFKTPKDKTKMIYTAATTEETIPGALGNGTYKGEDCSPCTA
Protocol: 20,000 cells (Human or Mouse LBAT-overexpressing cells) were seeded in 96-wells plate (Corning CLS3809) in 100 μL MEM-alpha medium (Gibco 12571-063) supplemented with 10% FBS (Gibco 10438026) containing Geneticin (Gibco 10131-027) (1 mg/mL) and incubated at 37° C. in 5% CO2 for 24 hours. After incubation, media was decanted from the wells and cells were washed two times with 300 μL of basal MEM-alpha medium (FBS-free). After decanting basal MEM-alpha medium each time, plates were tapped against paper towel to ensure maximum removal of residual media.
For human LBAT, incubation mix was prepared by adding test inhibitor dilutions (3-fold serial dilution in DMSO (Sigma D2650), 10 points) in MEM-alpha (without FBS) containing 0.3 μM 3H-taurocholic acid (ARC ART-1368) and 7.5 μM cold taurocholic acid (Sigma T4009) (maintaining 0.2% final DMSO concentration). For mouse LBAT, incubation mix was prepared by adding test inhibitor dilutions (3-fold serial dilution in DMSO, 10 points) in MEM-alpha (without FBS) containing 0.3 μM 3H-taurocholic acid and 25 μM cold taurocholic acid maintaining 0.2% final DMSO concentration).
50 μL of incubation mix containing test inhibitors was then added to the wells (in duplicate) and the plates were incubated for 20 minutes in a CO2 incubator at 37° C. After incubation, the reaction was stopped by keeping the plates on ice water mix for 2-3 minutes and then the incubation mix was aspirated completely from the wells. The wells were washed two times with 250 μL of chilled unlabelled 1 mM taurocholic acid dissolved in HEPES (Gibco 15630080)-buffered (10 mM) HBSS (Gibco 14175079) (pH 7.4). The plates were tapped against a paper towel after every wash to ensure maximum removal of blocking buffer.
100 μL of MicroScint-20 (PerkinElmer 6013621) was added to the wells and kept overnight at room temperature before reading the plates in TopCount NXT™ Microplate Scintillation and Luminescence Counter from PerkinElmer under 3H Test protocol (set at 120 seconds reading time per well, with normal plate orientation).
(§1) All test compounds were provided in powder form at room temperature. 10 mM DMSO stocks of the test compounds were prepared, aliquoted and stored at −20° C. From the 10 mM DMSO stock of the compounds, a 3-fold serial dilution in DMSO was prepared to get a total of 10 dilutions of the test compounds. 0.5 μL of this dilution in DMSO was added to 250 μL of FBS-free basal media containing 3H-taurocholic acid and cold taurocholic acid to prepare the incubation mixture.

human IBAT = biological target: T2, human IBAT (Homo sapiens, UniProt Q12908); test: IBAT (h/m) assay, human IBAT-overexpressing cells, 3H-taurocholic acid uptake; format: cell-based; details: 0.25 μM 3H-taurocholic acid + 5 μM cold taurocholic acid, 20 minutes, read-out: hIBAT IC50
T2 construct: expressed in transfected cells; Puromycin-selected IBAT-overexpressing cells
T2 sequence (Q12908 1-348): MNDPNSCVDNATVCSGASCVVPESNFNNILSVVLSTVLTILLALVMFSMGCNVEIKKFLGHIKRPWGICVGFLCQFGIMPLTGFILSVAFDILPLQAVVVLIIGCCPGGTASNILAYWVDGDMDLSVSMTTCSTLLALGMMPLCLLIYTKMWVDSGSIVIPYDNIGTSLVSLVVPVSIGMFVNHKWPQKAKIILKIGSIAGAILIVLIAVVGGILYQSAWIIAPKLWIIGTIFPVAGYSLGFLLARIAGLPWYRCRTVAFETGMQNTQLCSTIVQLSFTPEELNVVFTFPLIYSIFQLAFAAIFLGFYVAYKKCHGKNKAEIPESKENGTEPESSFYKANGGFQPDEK
Protocol: 10,000 cells (Human or Mouse IBAT-overexpressing cells) were seeded in 96-wells plate (Corning CLS3809) in 200 μL MEM-alpha medium (Gibco 12571-063) supplemented with 10% FBS (Gibco 10438026) containing Puromycin (Gibco A1113803) (10 μg/mL) and incubated at 37° C. in 5% CO2 for 48 hours. After incubation, media was decanted from the wells and cells were washed two times with 300 μL of basal MEM-alpha medium (FBS-free). After decanting basal MEM-alpha medium each time, plates were tapped against paper towel to ensure maximum removal of residual media. Test inhibitor dilutions (highest test concentration being 10 μM, 3-fold serial dilution, 10 points) prepared in DMSO (Sigma D2650) were added in incubation mix (maintaining 0.2% final DMSO concentration) containing 0.25 μM 3H-taurocholic acid (ARC ART-1368) and 5 μM of cold taurocholic acid (Sigma T4009). 50 μL of incubation mix containing test inhibitors was then added to the wells (in duplicate) and the plates were incubated for 20 minutes in a CO2 incubator at 37° C. After incubation, the reaction was stopped by keeping the plates on ice water mix for 2-3 minutes and then the incubation mix was aspirated completely from the wells. The wells were washed two times with 250 μL of chilled unlabelled 1 mM taurocholic acid dissolved in HEPES (Gibco 15630080)-buffered (10 mM) HBSS (Gibco 14175079) (pH 7.4). The plates were tapped against a paper towel after every wash to ensure maximum removal of blocking buffer.
100 μL of MicroScint-20 (PerkinElmer 6013621) was added to the wells and kept overnight at room temperature before reading the plates in TopCount NXT™ Microplate Scintillation and Luminescence Counter from PerkinElmer under 3H Test protocol (set at 120 seconds reading time per well).
as §1

SMILES: CCCCC1(CC)CN(c2ccccc2)c2cc(SC)c(OCCC(=O)O)cc2S(=O)(=O)N1 (racemic) [Example 2, 3-((3-butyl-3-ethyl-7-(methylthio)-1,1-dioxido-5-phenyl-2,3,4,5-tetrahydro-1,2,5-benzothiadiazepin-8-yl)oxy)propanoic acid]
pIC50 (human LBAT): 6.13
pIC50 (human IBAT): 8.40

SMILES: CCCCC1(CCCC)CN(c2ccccc2)c2cc(SC)c(OCC(O)C(=O)O)cc2S(=O)(=O)N1 (single isomer, unassigned) [Example 6, 3-((3,3-dibutyl-7-(methylthio)-1,1-dioxido-5-phenyl-2,3,4,5-tetrahydro-1,2,5-benzothiadiazepin-8-yl)oxy)-2-hydroxypropanoic acid]
pIC50 (human LBAT): 5.44
pIC50 (human IBAT): 7.85

SMILES: CCCCC1(CC)CN(c2ccccc2)c2cc(SC)c(OCC(N)C(=O)O)cc2S(=O)(=O)N1 (stereo not shown) [Example 14, O-(3-butyl-3-ethyl-7-(methylthio)-1,1-dioxido-5-phenyl-2,3,4,5-tetrahydro-1,2,5-benzothiadiazepin-8-yl)serine]
pIC50 (human LBAT): 6.47
pIC50 (human IBAT): 8.22

More lines, now with the values ahead:

pIC50 (human LBAT): 6.55
pIC50 (human IBAT): 7.64
SMILES: CCCCC1(CC)CN(c2ccccc2)c2cc(SC)c(OCCC(=O)O)cc2S(=O)(=O)N1 (single isomer, unassigned) [Example 3, 3-((3-butyl-3-ethyl-7-(methylthio)-1,1-dioxido-5-phenyl-2,3,4,5-tetrahydro-1,2,5-benzothiadiazepin-8-yl)oxy)propanoic acid]

pIC50 (human LBAT): 5.65
pIC50 (human IBAT): 7.82
SMILES: CCCCC1(CC)CN(c2ccccc2)c2cc(N(C)C)c(OCCC(=O)O)cc2S(=O)(=O)N1 (single isomer, unassigned) [Example 13, 3-((3-butyl-7-(dimethylamino)-3-ethyl-1,1-dioxido-5-phenyl-2,3,4,5-tetrahydro-1,2,5-benzothiadiazepin-8-yl)oxy)propanoic acid]
